IC50 and inhibition data for 3 molecules are collected here from ChEMBL document CHEMBL1799946, “Synthesis and biological evaluation of desmethylveramiline, a micromolar Hedgehog inhibitor” (Bioorg Med Chem Lett, 2011).

One assay has as its target Sonic hedgehog protein (Mus musculus, UniProt Q62226). Briefly: Inhibition of SHH pathway in mouse Shh Light2 cells after 40 hrs by Gli-dependent luciferase reporter gene assay. Format: functional, cell-based, Shh Light II. (In general: Reporter assays use an easily measured gene product as a stand-in for the process of interest.)
For assay [1], the target named is Sonic hedgehog protein (Mus musculus) (UniProt Q62226). In words: Inhibition of N-terminal SHH activated pathway in mouse C3H10T1/2 cells assessed as SAG-induced cell differentiation at 1 uM by alkaline phosphatase assay. The format is cell-based. The settings on record: C3H 10T1/2.
Assay [2] shares this target. In words: Inhibition of N-terminal SHH activated pathway in mouse C3H10T1/2 cells assessed as SAG-induced cell differentiation at 10 uM by alkaline phosphatase assay. Format: cell-based. The following applies: C3H 10T1/2.
For assay [3] the target is unchanged. Briefly: Inhibition of SHH pathway in mouse Shh Light2 cells at 0.3 uM after 40 hrs by Gli-dependent luciferase reporter gene assay. Format: functional, cell-based. The settings on record: Shh Light II.
Assay [4] shares this target. In words: Inhibition of SHH pathway in mouse Shh Light2 cells at 3 uM after 40 hrs by Gli-dependent luciferase reporter gene assay. Format: functional, cell-based. The settings on record: Shh Light II.
For assay [5] the target is unchanged. Briefly: Inhibition of SHH pathway in mouse Shh Light2 cells at 10 uM after 40 hrs by Gli-dependent luciferase reporter gene assay. The settings on record: Shh Light II. The format is functional, cell-based.

Chain of Sonic hedgehog protein (Q62226 25-198 limits assumed): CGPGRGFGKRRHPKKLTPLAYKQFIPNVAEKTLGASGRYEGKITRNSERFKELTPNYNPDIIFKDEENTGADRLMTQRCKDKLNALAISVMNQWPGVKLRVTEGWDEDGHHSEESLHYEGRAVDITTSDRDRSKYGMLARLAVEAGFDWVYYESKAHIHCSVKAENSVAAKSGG

With `COc1cccc(CN(C(=O)CC(C)(C)C)[C@H]2C[C@@H](C(=O)N3CCNCC3)N(Cc3ccc4c(c3)OCO4)C2)c1`, at Sonic hedgehog protein, the half-maximal inhibitory concentration (IC50) is 100 nM. For the same molecule, the inhibition came to 78% in assay [1]; 99% in assay [2]; 89% in assay [3]; 97% in assay [4]; 92% in assay [5].

For `CC1=C2C[C@H]3[C@@H](CC=C4C[C@@H](O)CC[C@@]43C)[C@@H]2CC[C@]12O[C@@H]1C[C@H](C)CN[C@H]1[C@H]2C` [CYCLOPAMINE], the midpoint of inhibition against Sonic hedgehog protein, the IC50, lay at 300 nM. Further, the inhibition in assay [1] is 71%; in assay [2], 105%; in assay [3] it was 58%; in assay [4] it was 96%; in assay [5], 98%.

For the molecule `C[C@H]([C@@H]1CCCCN1)[C@H]1CC[C@H]2[C@@H]3CC=C4C[C@@H](O)CC[C@]4(C)[C@H]3CC[C@]12C` [DESMETHYLVERAMILINE], inhibition on Sonic hedgehog protein was half-maximal at 1100 nM (IC50). Besides, the inhibition was determined as 13% in assay [1]; 85% in assay [2]; 5% in assay [3]; 47% in assay [4]; 87% in assay [5].

A word on the IC50: it is the concentration that gives 50% inhibition. Read a high IC50 as weaker potency. In general, inhibition refers to the relative decrease from the control value, in per cent.
